Assays:
Experiment in all cases: viability relative to DMSO control (fraction); higher = less drug effect (more viable cells)
Details in all cases: 48 h
[1] = system: primary AML patient cells (S079)
Method in brief: (§1)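 Using 384-well plates with compounds already plated at five concentrations, one well per concentration, 4 × 10^4 primary mononuclear tumour cells were added per well. Cells were Ficoll-isolated from blood or bone marrow or came from processed lymph node, fresh or cryopreserved. They were kept for 48 h at 37 °C and 5% CO2 in RPMI-1640 supplemented with penicillin/streptomycin, L-glutamine and human serum, and viability was read as CellTiter-Glo luminescence relative to the median of 16 inner DMSO wells.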

[2] = system: primary MCL patient cells (S053)
Method in brief: as §1

[3] = system: primary MCL patient cells (S063)
Method in brief: as §1

[4] = system: primary AML patient cells (S056)
Method in brief: as §1

[5] = system: primary AML patient cells (S012)
Method in brief: as §1

[6] = system: primary AML patient cells (S006)
Method in brief: as §1

[7] = system: primary MCL patient cells (S041)
Method in brief: as §1

[8] = system: primary AML patient cells (S072)
Method in brief: as §1

[9] = system: primary AML patient cells (S060)
Method in brief: as §1

[10] = system: primary CLL patient cells (S031)
Method in brief: as §1

[11] = system: primary AML patient cells (S009)
Method in brief: as §1

[12] = system: primary ALL patient cells (S088)
Method in brief: as §1

[13] = system: primary AML patient cells (S085)
Method in brief: as §1

[14] = system: primary CLL patient cells (S043)
Method in brief: as §1

[15] = system: primary DLBCL patient cells (S082)
Method in brief: as §1

[16] = system: primary AML patient cells (S017)
Method in brief: as §1

[17] = system: primary FL patient cells (S087)
Method in brief: as §1

[18] = system: primary B-PLL patient cells (S016)
Method in brief: as §1

[19] = system: primary AML patient cells (S071)
Method in brief: as §1

[20] = system: primary BL patient cells (S005)
Method in brief: as §1

Work on `CC(C)C[C@H](NC(=O)CNC(=O)c1cc(Cl)ccc1Cl)B(O)O` [Ixazomib] yielded a viability ([1]; 0.008 µM) of 0.988, a viability ([1]; 0.04 µM) of 0.914 and a viability ([1]; 0.2 µM) of 0.888. The viability ([1]; 1 µM) was 1, the viability ([1]; 5 µM) was 1.02 and the viability ([2]; 0.008 µM) was 0.872. It also gave a viability ([2]; 0.04 µM) of 0.954, a viability ([2]; 0.2 µM) of 0.945 and a viability ([2]; 1 µM) of 0.972. It also gave a viability ([2]; 5 µM) of 0.883, a viability ([3]; 0.008 µM) of 0.919 and a viability ([3]; 0.04 µM) of 1.02. For the same molecule, the viability ([3]; 0.2 µM) was 0.921, the viability ([3]; 1 µM) was 0.993 and the viability ([3]; 5 µM) was 0.953. The viability ([4]; 0.008 µM) was 0.755, the viability ([4]; 0.04 µM) was 0.894 and the viability ([4]; 0.2 µM) was 1.11. For the same molecule, the viability ([4]; 1 µM) was 0.9, the viability ([4]; 5 µM) was 0.893 and the viability ([5]; 0.008 µM) was 0.975. For the same molecule, the viability ([5]; 0.04 µM) was 0.971, the viability ([5]; 0.2 µM) was 1.1 and the viability ([5]; 1 µM) was 1.01. The viability ([5]; 5 µM) was 0.978, the viability ([6]; 0.008 µM) was 0.929 and the viability ([6]; 0.04 µM) was 1. The viability ([6]; 0.2 µM) was 0.924, the viability ([6]; 1 µM) was 1.04 and the viability ([6]; 5 µM) was 1.01. The viability ([7]; 0.008 µM) was 0.87, the viability ([7]; 0.04 µM) was 0.97 and the viability ([7]; 0.2 µM) was 0.934. The viability ([7]; 1 µM) was 1.04, the viability ([7]; 5 µM) was 1.05 and the viability ([8]; 0.008 µM) was 1.09. For the same molecule, the viability ([8]; 0.04 µM) was 0.984, the viability ([8]; 0.2 µM) was 0.838 and the viability ([8]; 1 µM) was 0.922. For the same molecule, the viability ([8]; 5 µM) was 0.934, the viability ([9]; 0.008 µM) was 1.03 and the viability ([9]; 0.04 µM) was 0.988. For the same molecule, the viability ([9]; 0.2 µM) was 1.03, the viability ([9]; 1 µM) was 1.02 and the viability ([9]; 5 µM) was 1.01. It also gave a viability ([10]; 0.008 µM) of 0.876, a viability ([10]; 0.04 µM) of 1.04 and a viability ([10]; 0.2 µM) of 1.01. For the same molecule, the viability ([10]; 1 µM) was 1.05, the viability ([10]; 5 µM) was 1.02 and the viability ([11]; 0.008 µM) was 1.09. The viability ([11]; 0.04 µM) was 0.981, the viability ([11]; 0.2 µM) was 1.08 and the viability ([11]; 1 µM) was 1.03. It also gave a viability ([11]; 5 µM) of 1.09, a viability ([12]; 0.008 µM) of 0.741 and a viability ([12]; 0.04 µM) of 0.839. The viability ([12]; 0.2 µM) was 0.793, the viability ([12]; 1 µM) was 0.851 and the viability ([12]; 5 µM) was 0.996. The viability ([13]; 0.008 µM) was 0.842, the viability ([13]; 0.04 µM) was 0.977 and the viability ([13]; 0.2 µM) was 0.807. It also gave a viability ([13]; 1 µM) of 0.911, a viability ([13]; 5 µM) of 1.08 and a viability ([14]; 0.008 µM) of 0.915. The viability ([14]; 0.04 µM) was 0.73, the viability ([14]; 0.2 µM) was 0.987 and the viability ([14]; 1 µM) was 0.74. For the same molecule, the viability ([14]; 5 µM) was 0.781, the viability ([15]; 0.008 µM) was 0.858 and the viability ([15]; 0.04 µM) was 0.964. For the same molecule, the viability ([15]; 0.2 µM) was 0.815, the viability ([15]; 1 µM) was 1.06 and the viability ([15]; 5 µM) was 1.01. It also gave a viability ([16]; 0.008 µM) of 0.923, a viability ([16]; 0.04 µM) of 0.963 and a viability ([16]; 0.2 µM) of 0.834. It also gave a viability ([16]; 1 µM) of 0.942, a viability ([16]; 5 µM) of 0.979 and a viability ([17]; 0.008 µM) of 0.91. The viability ([17]; 0.04 µM) was 0.975, the viability ([17]; 0.2 µM) was 0.978 and the viability ([17]; 1 µM) was 0.96. It also gave a viability ([17]; 5 µM) of 0.982, a viability ([18]; 0.008 µM) of 0.929 and a viability ([18]; 0.04 µM) of 0.946. For the same molecule, the viability ([18]; 0.2 µM) was 0.987, the viability ([18]; 1 µM) was 1 and the viability ([18]; 5 µM) was 0.913. The viability ([19]; 0.008 µM) was 1.01, the viability ([19]; 0.04 µM) was 0.972 and the viability ([19]; 0.2 µM) was 0.995. It also gave a viability ([19]; 1 µM) of 0.98, a viability ([19]; 5 µM) of 0.974 and a viability ([20]; 0.008 µM) of 1.61. The viability ([20]; 0.04 µM) was 0.944, the viability ([20]; 0.2 µM) was 1.56 and the viability ([20]; 1 µM) was 0.939. For the same molecule, the viability ([20]; 5 µM) was 0.945.

From the supplement of paper PMC10733146
